Measurements reported in US20070248727A1, “Method for Removing Hydrohydroquinone” (KAO CORPORATION, priority 2004, published 2007).

System: rats
Test: Urinary hydrogen peroxide level after giving coffee to rats
Format: in vivo
Settings: rats given coffee
From the text: It is therefore desired to remove hydroxyhydroquinone from coffee.

generation of hydrogen peroxide in the bodies: caused by hydroxyhydroquinone
Structure (SMILES): Oc1ccc(O)c(O)c1 [hydroxyhydroquinone]
